Experimental findings from patent publication US10934298B2, “Substituted pyrazolo[1,5-a]pyrimidines for the treatment of medical disorders” (BIAL—BioTech Investments, Inc., priority 2016, dated 2021) are described below.

Molecules are shown by their SMILES. ≈ marks a conversion by molar mass, not a printed value. Where two headings read alike, the source gives them in different places.

Data set [1] concerns the target T1, glucocerebrosidase (Gcase) (Homo sapiens, UniProt P04062).
T1 construct: micellar solution containing 10 nM GCase and 100 nM saposin C
T1 sequence (P04062 40-536): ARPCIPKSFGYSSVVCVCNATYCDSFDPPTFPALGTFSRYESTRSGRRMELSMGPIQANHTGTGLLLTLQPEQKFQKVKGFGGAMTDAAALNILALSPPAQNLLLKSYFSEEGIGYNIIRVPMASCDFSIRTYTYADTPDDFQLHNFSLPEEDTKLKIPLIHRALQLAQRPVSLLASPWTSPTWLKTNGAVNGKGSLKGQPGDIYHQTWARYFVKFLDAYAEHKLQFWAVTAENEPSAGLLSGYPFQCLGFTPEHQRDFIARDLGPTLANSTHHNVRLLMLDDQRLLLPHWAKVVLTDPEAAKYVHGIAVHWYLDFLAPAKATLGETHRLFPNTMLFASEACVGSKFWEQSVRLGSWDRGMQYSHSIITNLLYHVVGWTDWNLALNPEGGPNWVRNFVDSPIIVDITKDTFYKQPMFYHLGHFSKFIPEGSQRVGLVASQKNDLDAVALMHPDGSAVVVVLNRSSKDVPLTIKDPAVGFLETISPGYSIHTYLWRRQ
The experiment in a line: Glucocerebrosidase (Gcase) activation assay with 4-methylumbelliferyl-beta-D-glucopyranoside substrate, saposin C and phosphatidylserine/triton micelles, fluorescence readout. Format: biochemical. The following applies: for Percent Gease Activation, 0.1 μM Test Compound / Percent Gease Activation, 1 μM Test Compound: Table 4. The method in brief: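 Test compounds are first screened at 1.0 and 0.1 μM final, then titrated in 8 points (3-fold from 5 μM) against human GCase with saposin C in phosphatidylserine/triton X-100 micelles at pH 4.7. Reactions run 15 min at room temperature, with fluorescence read at 365/440 nm.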

The nature of data set [2]: Compound solubility in water. In kind it is physicochemical.

One may read the solubility as how much of the substance goes into solution per volume. A lower solubility goes with a poorly soluble substance. As for `Cc1cc(-c2ccccn2)nc2c(C(=O)N[C@@H](C)C3CC3)cnn12` [III-24], the “Percent Gcase Activation, 0.1 μM Test Compound” value in data set [1] (0.1 μM test compound, Table 3A) is “** (Gcase activation in the range of 10% up to 20%)”. Also, the “Percent Gcase Activation, 1 μM Test Compound” value in data set [1] (1 μM test compound, Table 3A) was “+++ (Gcase activation greater than 60%)”. In data set [2] (Table 3A), this molecule yielded a solubility of 8.1 µg/mL (≈ 25.2 µM).
Take `Cc1cc(-c2cccnc2)nc2c(C(=O)N[C@@H](C)C3CC3)cnn12` [III-26]: in data set [1] (0.1 μM test compound, Table 3A), the “Percent Gcase Activation, 0.1 μM Test Compound” value was “* (less than 10% Gcase activation)”. Besides, in data set [1] (1 μM test compound, Table 3A), the “Percent Gcase Activation, 1 μM Test Compound” value is given as “++ (Gcase activation in the range of 30% up to 60%)”. This molecule also came in with a solubility in data set [2] (Table 3A) of 26 µg/mL (≈ 80.9 µM).
`COc1cccc(-c2cc(C)n3ncc(C(=O)NC(C4CC4)C(F)(F)F)c3n2)n1` (stereo not drawn) [III-105]: in data set [1] (test compound at 0.1 μM), the “Percent Gcase Activation, 0.1 μM Test Compound” value is “*** (greater than 20% Gcase activation)”. Further, the “Percent Gcase Activation, 1 μM Test Compound” value in data set [1] (test compound at 1.0 μM) is “+++ (Gcase activation greater than 60%)”. For the same molecule, the solubility in data set [2] came to 0.08 µg/mL (≈ 0.197 µM).
As to `Cc1cc(-c2ccc(Cl)nc2)nc2c(C(=O)N[C@@H](C3CC3)C(F)(F)F)cnn12` [III-118], in data set [1] (test compound at 0.1 μM), the “Percent Gcase Activation, 0.1 μM Test Compound” value was “*** (greater than 20% Gcase activation)”. The “Percent Gcase Activation, 1 μM Test Compound” value in data set [1] (test compound at 1.0 μM) is given as “+++ (Gcase activation greater than 60%)”. The molecule also registered a solubility in data set [2] of 0.4 µg/mL (≈ 0.976 µM).
For `Cc1cc(-c2cccc(F)n2)nc2c(C(=O)NC(C3CC3)C(F)(F)F)cnn12` (stereo not drawn) [III-130], in that order: “*** (greater than 20% Gcase activation)”, “+++ (Gcase activation greater than 60%)” and 0.2 µg/mL (≈ 0.508 µM).
In the case of `Cc1cc(-c2ccc3ocnc3c2)nc2c(C(=O)NC(C3CC3)C(F)(F)F)cnn12` (stereo not drawn) [III-171], the “Percent Gcase Activation, 0.1 μM Test Compound” value in data set [1] (test compound at 0.1 μM) was “*** (greater than 20% Gcase activation)”. Moreover, the “Percent Gcase Activation, 1 μM Test Compound” value in data set [1] (test compound at 1.0 μM) is “+++ (Gcase activation greater than 60%)”. Further, the “Compound Solubility in Water” value in data set [2] is 0.4 µg/mL.
On to `C#CC(C)(C)NC(=O)c1cnn2c(C)cc(-c3ccns3)nc12` [III-412], for which, in data set [1] (0.1 μM test compound), the “Percent Gcase Activation, 0.1 μM Test Compound” value was “* (less than 10% Gcase activation)”. Also, the “Percent Gcase Activation, 1 μM Test Compound” value in data set [1] (1 μM test compound) is recorded as “+++ (Gcase activation greater than 60%)”.
For `Cc1cc(-c2cccc(C(=O)N(C)C)c2)nc2c(C(=O)NC(C3CC3)C(F)(F)F)cnn12` (stereo not drawn) [III-413], the “Percent Gcase Activation, 0.1 μM Test Compound” value in data set [1] (0.1 μM test compound) is given as “* (less than 10% Gcase activation)”. Further, the “Percent Gcase Activation, 1 μM Test Compound” value in data set [1] (1 μM test compound) was “+++ (Gcase activation greater than 60%)”.
In the case of `CNC(=O)c1cccc(-c2cc(C)n3ncc(C(=O)NC(C4CC4)C(F)(F)F)c3n2)c1` (stereo not drawn) [III-414], the “Percent Gcase Activation, 0.1 μM Test Compound” value in data set [1] (0.1 μM test compound) is on record as “* (less than 10% Gcase activation)”. The “Percent Gcase Activation, 1 μM Test Compound” value in data set [1] (1 μM test compound) is “+++ (Gcase activation greater than 60%)”.
With `Cc1cc(-c2cccc(-n3cccn3)c2)nc2c(C(=O)NC(C3CC3)C(F)(F)F)cnn12` (stereo not drawn) [III-415], the “Percent Gcase Activation, 0.1 μM Test Compound” value in data set [1] (0.1 μM test compound) is listed as “*** (greater than 20% Gcase activation)”. In data set [1] (1 μM test compound), the “Percent Gcase Activation, 1 μM Test Compound” value was “++ (Gcase activation in the range of 30% up to 60%)”.
In the case of `Cc1cc(-c2cccc(-c3ncco3)c2)nc2c(C(=O)NC(C3CC3)C(F)(F)F)cnn12` (stereo not drawn) [III-416], the “Percent Gcase Activation, 0.1 μM Test Compound” value in data set [1] (0.1 μM test compound) is given as “*** (greater than 20% Gcase activation)”. Also, in data set [1] (1 μM test compound), the “Percent Gcase Activation, 1 μM Test Compound” value is recorded as “+++ (Gcase activation greater than 60%)”.
On to `Cc1cc(-c2cccc(-c3ncccn3)c2)nc2c(C(=O)NC(C3CC3)C(F)(F)F)cnn12` (stereo not drawn) [III-417], for which the “Percent Gcase Activation, 0.1 μM Test Compound” value in data set [1] (0.1 μM test compound) is reported as “*** (greater than 20% Gcase activation)”. The “Percent Gcase Activation, 1 μM Test Compound” value in data set [1] (1 μM test compound) was “+++ (Gcase activation greater than 60%)”.
Regarding `C#Cc1ccc(NC(=O)c2cnn3c(C)cc(C)nc23)cc1` [IV-1], in data set [1] (0.1 μM test compound), the “Percent Gease Activation, 0.1 μM Test Compound” value is recorded as “** (Gcase activation in the range of 10% up to 20%)”. Besides, the “Percent Gease Activation, 1 μM Test Compound” value in data set [1] (1 μM test compound) is listed as “++ (Gcase activation in the range of 30% up to 60%)”. Moreover, the “Compound Solubility in Water” value in data set [2] (Table 4) is <1.5 µg/mL.
As for `Cc1cc(C)n2ncc(C(=O)Nc3ccc(C#CCN(C)C)cc3)c2n1` [IV-2], in data set [1] (0.1 μM test compound), the “Percent Gease Activation, 0.1 μM Test Compound” value was “* (less than 10% Gcase activation)”. Further, in data set [1] (1 μM test compound), the “Percent Gease Activation, 1 μM Test Compound” value is listed as “+ (less than 30% Gcase activation)”.
Take `Cc1cc(C)n2ncc(C(=O)Nc3ccc(N4CCCCC4)cc3)c2n1` [IV-3]: the “Percent Gease Activation, 0.1 μM Test Compound” value in data set [1] (0.1 μM test compound) was “* (less than 10% Gcase activation)”. In addition, the “Percent Gease Activation, 1 μM Test Compound” value in data set [1] (1 μM test compound) is on record as “+ (less than 30% Gcase activation)”. In addition, the “Compound Solubility in Water” value in data set [2] (Table 4) is <1.5 µg/mL.
With `Cc1cc(C)n2ncc(C(=O)Nc3ccc4c(c3)OCO4)c2n1` [IV-4], the “Percent Gease Activation, 0.1 μM Test Compound” value in data set [1] (0.1 μM test compound) was “* (less than 10% Gcase activation)”. For the same molecule, in data set [1] (1 μM test compound), the “Percent Gease Activation, 1 μM Test Compound” value is “++ (Gcase activation in the range of 30% up to 60%)”.
In the same order, the values of `Cc1cc(C)n2ncc(C(=O)Nc3ccc4c(c3)CCC4)c2n1` [IV-5] are “** (Gcase activation in the range of 10% up to 20%)” and “+++ (Gcase activation greater than 60%)”.
